Experimental findings from PubChem BioAssay (NCI) are described below.

Assay in all cases: DTP human tumour cell line panel, 48 h
The subject of assay [1] is MDA-N.
In assay [2] the test system is MDA-MB-231 breast.
In assay [3] the test system is NCI/ADR-RES ovarian.
The test system of assay [4] is DMS 114 small cell lung.
Assay [5] concerns SNB-78 CNS.
For assay [6], the system named is KM20L2 colon.
Assay [7] relates to HOP-18 NSCLC.
For assay [8], the system named is XF 498 CNS.

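Five concentrations, 48 hours, 96-well plates. Abbreviation: GI50, concentration required for 50% inhibition of growth. The concentration for full growth arrest is given as TGI.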

As usually defined, the TGI is the concentration at which net growth stops. A lower TGI goes with more potent growth arrest. Regarding `OCCOCn1nc(-c2ccccc2)nc1-c1cnccn1`, the TGI in assay [1], in assay [2] and in assay [3] was above 100 µM in each case.

The GI50 is the concentration giving 50% growth inhibition. In the case of `CCCCCCCC(=O)SCC/C=C/[C@@H]1CC(=O)NCc2cccc(n2)CN(Cc2ccc(Cl)cc2)CC(=O)N[C@@H](C(C)C)C(=O)O1`, in assay [2], the GI50 was 11.7 µM and the total growth inhibition concentration (TGI) was 68.8 µM. For the same molecule, in assay [3], the GI50 is 11.4 µM and the TGI is above 100 µM.

Turning to `COC(=O)C(=O)C(C(=O)C(=O)Nc1ccc(Cl)cc1Cl)c1nc2ccc(Cl)cc2[nH]c1=O` (configuration not stated), the TGI in assay [2] and in assay [3] was above 100 µM in each case.

In the case of `Cc1cc(CC(O)(C(F)(F)F)C(F)(F)F)cc(CC(O)(C(F)(F)F)C(F)(F)F)n1`, the TGI in assay [1] was 13 µM; in assay [2] it was 6.84 µM; in assay [3], 5.95 µM.

Turning to `COc1cc(C2CC(c3ccc(C)cc3)=NN2C(C)=O)ccc1Oc1ccnc2cc(Cl)ccc12` (configuration not stated), in assay [2], the GI50 was 11.3 µM and the concentration for total growth inhibition (TGI) is above 100 µM.

On to `Cc1cc(C)c2nc(Nc3nc(C)c(C)c(=O)[nH]3)nc(C)c2c1`, for which, in assay [2], the GI50 is 2.99 µM and the TGI was found to be 12.7 µM. For the same molecule, in assay [3], the GI50 was 4.12 µM and the TGI was 57.3 µM.

`COc1cc(C=C2C(=O)OC(C)(C)OC2=O)cc(OC)c1OC`: the TGI in assay [4], in assay [5], in assay [6] and in assay [7] was above 100 µM throughout.

For the molecule `CC1CCC(O)/C=C/C(=O)OC(C)C(O)/C=C/C(=O)O1` (configuration not stated), the TGI in assay [1], in assay [2] and in assay [3] was above 100 µM throughout.

In the case of `COc1cc(OC)cc(-c2n[nH]nc2-c2ccc3c(c2)OCO3)c1`, in assay [2], the GI50 is 0.529 µM and the total growth inhibition concentration (TGI) was determined as 31.5 µM. Moreover, in assay [3], the GI50 is 0.0849 µM and the TGI was 24 µM.

Turning to `O=C(O)/C=C/C(=O)Nc1cccc2c1-c1ccccc1C2=O`, the TGI in assay [1] is 12.1 µM; in assay [2], 81.3 µM; in assay [3], above 92.1 µM.

For `COc1ccc(/C(C#N)=C/c2nc3c(N4CCOCC4)nc(Cl)nc3n2C)cc1OC`, in assay [2], the GI50 is below 0.0133 µM and the TGI amounted to 2.46 µM. Besides, in assay [3], the GI50 is below 0.01 µM and the TGI is below 0.01 µM.

Regarding `COc1ccc(OC)c(-c2cc(-c3ccc(Cl)cc3)nn2-c2ccc(S(N)(=O)=O)cc2)c1`, in assay [2], the GI50 was 6.05 µM and the TGI came out at 19 µM. In assay [3], the GI50 was 6.54 µM and the TGI worked out at 22.2 µM.

In the case of `COc1ccc(-n2cc(-c3ccc(Cl)cc3)[nH]c2=S)cc1Cl`, in assay [2], the GI50 was 22.1 µM and the TGI amounted to 82.2 µM. In assay [3], the GI50 was 42.2 µM and the TGI was above 100 µM.

Regarding `CC(C)n1c2c(c3ccccc3c1=O)C(=O)c1ccccc1-2`, the TGI in assay [1], in assay [2] and in assay [3] was above 100 µM in each case.

`CCCCC#Cc1c(I)n(C2OC(CO[Si](C)(C)C(C)(C)C)C3OC(C)(C)OC32)c(=O)[nH]c1=O` (configuration not stated): in assay [2], the GI50 is 2.44 µM and the TGI is 9.55 µM. For the same molecule, in assay [3], the GI50 is 18.1 µM and the concentration for total growth inhibition (TGI) came to 49.7 µM.

`COc1ncn(C2C=C(CO)C(O)C2O)c(=O)n1` (configuration not stated): the TGI in assay [4], in assay [5], in assay [6] and in assay [7] was above 100 µM throughout.

Consider `CCSc1sc(-c2ccc(C)cc2)nc1[P+](c1ccccc1)(c1ccccc1)c1ccccc1`, for which, in assay [2], the GI50 is 0.259 µM and the TGI was 1.14 µM.

In the case of `O=C(/C=C(\O)C(=O)O)/C=C(\O)c1ccc(Cl)cc1`, the TGI in assay [4], in assay [5], in assay [8], in assay [6] and in assay [7] was above 100 µM throughout.

On to `COc1cc2c3c(c1OC)C1(C=CC(=O)C=C1)CC3N(C(=O)OC(C)(C)C(Cl)(Cl)Cl)CC2` (configuration not stated), for which the concentration for total growth inhibition (TGI) in assay [4] worked out at 22 µM; in assay [5], 33.8 µM; in assay [8] it was 23.9 µM; in assay [6], 25.2 µM; in assay [7], 50.4 µM.

With `COC(=O)CC[C@@H](NC(=O)C(C)NC(=O)COC1C(O)C(COC(=O)CCCCCCCCCCNC(=O)c2ccc([N+](=O)[O-])c3[nH]c4cc(Br)ccc4c(=O)c23)OC(OCc2ccccc2)C1NC(C)=O)C(N)=O` (some centres not stated), the TGI in assay [4], in assay [5], in assay [8], in assay [6] and in assay [7] was above 100 µM each time.

Take `COC1=CC(=O)c2c(O)c3c(c(O)c2C1=O)CC(C)(O)OC3` (configuration not stated): the TGI was 3.57 µM in assay [1], above 41 µM in assay [2] and above 25.9 µM in assay [3].

Consider `Nc1nc(Cl)cc2c1ncn2C1OC(CO)C(O)C1O` (configuration not stated), for which, in assay [2], the GI50 was 52.3 µM and the total growth inhibition concentration (TGI) is above 100 µM. Further, in assay [3], the GI50 was above 100 µM and the TGI was above 100 µM.

Consider `COC(=O)C1=C(O)C(C(=O)OC)[C@@]2(O)[C@@H](C(=O)OC)C(c3ccccc3C(F)(F)F)C[C@@H]1[C@@H]2C(=O)OC` (some centres not stated), for which, in assay [2], the GI50 was 7.99 µM and the concentration for total growth inhibition (TGI) is 22.4 µM. In assay [3], the GI50 is 3.78 µM and the TGI came out at 16.8 µM.

As to `N=C(N)c1ccc(-c2ccc(-c3ccco3)o2)cc1`, the GI50 in assay [2] is 2.75 µM; in assay [3], 10.1 µM. Moreover, the TGI came to 7.75 µM in assay [2] and 28.5 µM in assay [3].

As to `CC(=O)O/N=C1\C=Cc2c(no[n+]2[O-])C1=O`, the TGI in assay [1] came out at 33.1 µM; in assay [2], 34.4 µM; in assay [3], 68.1 µM.

For `Cc1ccc(NC(=O)C(=O)C2C(=O)C3=C(CC2(C)C)NC2C=CC=CC2S3)c(C)c1` (configuration not stated), the concentration for total growth inhibition (TGI) in assay [1], in assay [2] and in assay [3] was above 100 µM in each case.

On to `CCOc1cccc2cccnc12`, for which the TGI in assay [4], in assay [8], in assay [6] and in assay [7] was above 100 µM in each case.
